Target: T1, human IKK-β (Homo sapiens, UniProt O14920)
T1 construct: A cDNA fragment encoding human IKK-β open reading frame was generated by PCR; His tag (from pcDNA3.1/His C); made in house; host or cells: Sf21 insect cells (baculovirus); substrate made in E. coli
T1 sequence (O14920 1-756): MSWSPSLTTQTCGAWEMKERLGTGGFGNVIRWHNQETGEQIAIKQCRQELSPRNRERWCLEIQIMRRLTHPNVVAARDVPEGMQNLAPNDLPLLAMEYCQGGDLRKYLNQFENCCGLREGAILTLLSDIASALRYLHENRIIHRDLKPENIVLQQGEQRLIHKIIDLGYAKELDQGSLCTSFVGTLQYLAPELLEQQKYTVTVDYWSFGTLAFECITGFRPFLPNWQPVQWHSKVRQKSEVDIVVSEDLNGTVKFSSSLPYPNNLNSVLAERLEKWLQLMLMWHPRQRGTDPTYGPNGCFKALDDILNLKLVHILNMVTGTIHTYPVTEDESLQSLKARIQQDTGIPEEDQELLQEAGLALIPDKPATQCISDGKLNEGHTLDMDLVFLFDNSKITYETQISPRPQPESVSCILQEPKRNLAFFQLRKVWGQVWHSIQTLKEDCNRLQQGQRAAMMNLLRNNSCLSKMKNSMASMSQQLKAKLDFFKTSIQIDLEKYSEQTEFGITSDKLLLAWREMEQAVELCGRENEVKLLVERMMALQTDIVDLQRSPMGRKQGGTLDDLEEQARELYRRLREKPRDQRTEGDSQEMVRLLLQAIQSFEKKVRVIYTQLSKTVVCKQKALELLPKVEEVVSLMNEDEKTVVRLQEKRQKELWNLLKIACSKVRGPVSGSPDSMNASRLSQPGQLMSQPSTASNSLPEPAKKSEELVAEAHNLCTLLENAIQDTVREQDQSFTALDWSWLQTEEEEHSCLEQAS
Experiment: IKK-β kinase inhibitory assay
Format: biochemical
Conditions: compounds as yielded by solid phase synthesis, purity about 40 to 90%, read-out: In vitro activity grade (In vitro IC50)
In short: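 Radiometric read-out: streptavidin capture of 33P-labelled bio-GST-IκBα(1-54), 0.2 μM, after a 2 h room-temperature reaction started with ATP/[γ-33P]ATP. Enzyme was recombinant His-tagged human IKK-β expressed in Sf21 insect cells, used at 0.6 μg/ml in Tris-HCl pH 7.6/MgCl2 kinase buffer. Compounds added in 2.5% DMSO.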

Structure (SMILES) | IC50
N#Cc1c(C2CCCNC2)cc(-c2c(O)cccc2OCc2ccc(Cl)c(Cl)c2)nc1N (centres unmarked) [Example 2-05] | < 500 nM
Cc1ccccc1COc1cccc(O)c1-c1cc(C2CCCNC2)c(C#N)c(N)n1 (centres unmarked) [Example 2-06] | < 500 nM
N#Cc1c(C2CCCNC2)cc(-c2c(O)cccc2OCc2ccccc2-c2ccccc2)nc1N (centres unmarked) [Example 2-22] | < 500 nM
N#Cc1c(C2CCNCC2)cc(-c2c(O)cccc2OCc2ccccc2)nc1N [Example 2-23] | < 500 nM
N#Cc1c(C2CCCNC2)cc(-c2c(O)cccc2OCc2ccc(Br)cc2)nc1N (centres unmarked) [Example 2-24] | < 500 nM
N#Cc1c(C2CCCNC2)cc(-c2c(O)cccc2OCc2ccccc2F)nc1N (centres unmarked) [Example 2-25] | < 500 nM
N#Cc1c(C2CCCNC2)cc(-c2c(O)cccc2OCc2ccc(F)cc2F)nc1N (centres unmarked) [Example 2-26] | < 500 nM
N#Cc1c(C2CCCNC2)cc(-c2c(O)cccc2OCc2cccc(F)c2)nc1N (centres unmarked) [Example 2-27] | < 500 nM
N#Cc1c(C2CCCNC2)cc(-c2c(O)cccc2OCc2ccc(F)cc2)nc1N (centres unmarked) [Example 2-28] | < 500 nM
N#Cc1c(C2CCCNC2)cc(-c2c(O)cccc2OCc2ccc(F)c(F)c2)nc1N (centres unmarked) [Example 2-29] | < 500 nM
COC(=O)c1ccc(COc2cccc(O)c2-c2cc(C3CCCNC3)c(C#N)c(N)n2)cc1 (centres unmarked) [Example 2-30] | < 500 nM
CC(C)(C)c1ccc(COc2cccc(O)c2-c2cc(C3CCCNC3)c(C#N)c(N)n2)cc1 (centres unmarked) [Example 2-31] | < 500 nM
N#Cc1c(C2CCCNC2)cc(-c2c(O)cccc2OCc2cccc3ccccc23)nc1N (centres unmarked) [Example 2-32] | < 500 nM
N#Cc1c(C2CCCNC2)cc(-c2c(O)cccc2OCc2ccc(-c3ccccc3)cc2)nc1N (centres unmarked) [Example 2-33] | < 500 nM
N#Cc1c(C2CCCNC2)cc(-c2c(O)cccc2OCc2ccc(Cl)cc2Cl)nc1N (centres unmarked) [Example 2-34] | < 500 nM
Cc1ccc(COc2cccc(O)c2-c2cc(C3CCCNC3)c(C#N)c(N)n2)cc1 (centres unmarked) [Example 2-35] | < 500 nM
N#Cc1c(C2CCCNC2)cc(-c2c(O)cccc2OCc2ccc(C(F)(F)F)cc2)nc1N (centres unmarked) [Example 2-36] | < 500 nM
N#Cc1c(C2CCCNC2)cc(-c2c(O)cccc2OCc2ccccc2F)nc1N (centres unmarked) [Example 2-37] | < 500 nM
COC(=O)c1ccc(COc2cccc(O)c2-c2cc(C3CCCNC3)c(C#N)c(N)n2)cc1 (centres unmarked) [Example 2-38] | < 500 nM
N#Cc1c(C2CCCNC2)cc(-c2c(O)cccc2OCc2ccc(Br)cc2)nc1N (centres unmarked) [Example 2-39] | < 500 nM
N#Cc1c(CCN)cc(-c2c(O)cccc2OCc2ccccc2)nc1N [Example 2-40] | < 500 nM

Structure (SMILES) | IC50
N#Cc1c(C2CCCNC2)cc(-c2c(O)cccc2OCCc2ccccc2)nc1N (centres unmarked) [Example 2-41] | < 500 nM
N#Cc1c(C2CCCNC2)cc(-c2c(O)cccc2OCc2ccccn2)nc1N (centres unmarked) [Example 2-42] | < 500 nM
N#Cc1c(C2CCCNC2)cc(-c2c(O)cccc2OCc2cccnc2)nc1N (centres unmarked) [Example 2-43] | < 500 nM
N#Cc1c(C2CCCNC2)cc(-c2c(O)cccc2OCc2ccncc2)nc1N (centres unmarked) [Example 2-44] | < 500 nM
N#Cc1c(C2CCCNC2)cc(-c2c(O)cccc2OCc2ccc3ccccc3n2)nc1N (centres unmarked) [Example 2-45] | < 500 nM
N#Cc1c(C2CCCNC2)cc(-c2c(O)cccc2OCCC(c2ccccc2)c2ccccc2)nc1N (centres unmarked) [Example 2-46] | < 500 nM
N#Cc1c(C2CCCNC2)cc(-c2c(O)cccc2OCc2csc3ccc(Cl)cc23)nc1N (centres unmarked) [Example 2-47] | < 500 nM
N#Cc1c(C2CCCNC2)cc(-c2c(O)cccc2OCc2ncon2)nc1N (centres unmarked) [Example 2-48] | < 500 nM
Cc1cc(COc2cccc(O)c2-c2cc(C3CCCNC3)c(C#N)c(N)n2)no1 (centres unmarked) [Example 2-49] | < 500 nM
N#Cc1c(C2CCCNC2)cc(-c2c(O)cccc2OCCCc2ccccc2)nc1N (centres unmarked) [Example 2-50] | < 500 nM
N#Cc1c(C2CCCNC2)cc(-c2c(O)cccc2OCC(=O)c2ccccc2)nc1N (centres unmarked) [Example 2-51] | < 500 nM
N#Cc1c(C2CCNCC2)cc(-c2c(O)cccc2OCCc2ccccc2)nc1N [Example 2-52] | < 500 nM
N#Cc1c(C2CCCNC2)cc(-c2c(O)cccc2OCC2CCCCC2)nc1N (centres unmarked) [Example 2-53] | < 500 nM
CC(C)Oc1cccc(O)c1-c1cc(C2CCCNC2)c(C#N)c(N)n1 (centres unmarked) [Example 2-54] | < 500 nM
CCCOc1cccc(O)c1-c1cc(C2CCCNC2)c(C#N)c(N)n1 (centres unmarked) [Example 2-55] | < 500 nM
C=CCOc1cccc(O)c1-c1cc(C2CCCNC2)c(C#N)c(N)n1 (centres unmarked) [Example 2-56] | < 500 nM
COc1cccc(O)c1-c1cc(C2CCCNC2)c(C#N)c(N)n1 (centres unmarked) [Example 2-57] | < 500 nM
CCOc1cccc(O)c1-c1cc(C2CCCNC2)c(C#N)c(N)n1 (centres unmarked) [Example 2-58] | < 500 nM
CC(C)COc1cccc(O)c1-c1cc(C2CCCNC2)c(C#N)c(N)n1 (centres unmarked) [Example 2-59] | < 500 nM
CCCCCOc1cccc(O)c1-c1cc(C2CCCNC2)c(C#N)c(N)n1 (centres unmarked) [Example 2-60] | < 500 nM

Results, then the molecule that gave them:

IC50 | Structure (SMILES)
< 500 nM | CN1CCCC(c2cc(-c3ccccc3O)nc(N)c2C#N)C1 (centres unmarked) [Example 3-03]
< 500 nM | CCCN1CCCC(c2cc(-c3ccccc3O)nc(N)c2C#N)C1 (centres unmarked) [Example 3-04]
< 500 nM | N#Cc1c(C2CCCN(Cc3ccccc3)C2)cc(-c2ccccc2O)nc1N (centres unmarked) [Example 3-05]
500 to 2000 nM | N#Cc1c(C2CCCN(CCc3ccccc3)C2)cc(-c2ccccc2O)nc1N (centres unmarked) [Example 3-06]
< 500 nM | COc1ccc(CN2CCCC(c3cc(-c4c(O)cccc4O)nc(N)c3C#N)C2)cc1 (centres unmarked) [Example 3-07]
2000 to 10000 nM | COc1ccc(CN2CCCC(c3cc(-c4c(O)cccc4OCC4CC4)nc(N)c3C#N)C2)cc1 (centres unmarked) [Example 3-08]
< 500 nM | Nc1nc(-c2c(O)cccc2OCc2ccccc2)cc(C2CCCNC2)c1CO (centres unmarked) [Example 12-02]
< 500 nM | CCCOc1cccc(O)c1-c1cc(C2CCCNC2)c(CO)c(N)n1 (centres unmarked) [Example 12-03]
< 500 nM | CC(C)(C)COc1cccc(O)c1-c1cc(C2CCCNC2)c(CO)c(N)n1 (centres unmarked) [Example 12-04]
< 500 nM | Nc1nc(-c2c(O)cccc2OCC2CC2)cc(C2CCNCC2)c1CO [Example 12-05]
< 500 nM | CCCOc1cccc(O)c1-c1cc(C2CCNCC2)c(CO)c(N)n1 [Example 12-06]
< 500 nM | CC(C)CCCOc1cccc(O)c1-c1cc(C2CCNCC2)c(CO)c(N)n1 [Example 12-07]
< 500 nM | O=C1Nc2nc(-c3c(O)cccc3F)cc(C3CCCNC3)c2CO1 (centres unmarked) [Example 18-07]
< 500 nM | O=C1Nc2nc(-c3ncccc3O)cc(C3CCCNC3)c2CO1 (centres unmarked) [Example 18-08]
2000 to 10000 nM | Cc1cc(-c2c(O)cccc2OCC2CC2)nc2c1COC(=O)N2 [Example 18-09]
< 500 nM | O=C1Nc2nc(-c3c(O)cccc3OCc3ccccc3)cc(C3CCCNC3)c2CO1 (centres unmarked) [Example 18-10]
< 500 nM | CCCOc1cccc(O)c1-c1cc(C2CCCNC2)c2c(n1)NC(=O)OC2 (centres unmarked) [Example 18-11]
500 to 2000 nM | O=C1Nc2nc(-c3c(O)cccc3O)cc(C3CCNCC3)c2CO1 [Example 18-12]
< 500 nM | O=C1Nc2nc(-c3c(O)cccc3OCC3CC3)cc(C3CCNCC3)c2CO1 [Example 18-13]
< 500 nM | CCCOc1cccc(O)c1-c1cc(C2CCNCC2)c2c(n1)NC(=O)OC2 [Example 18-14]
< 500 nM | CC(C)CCCOc1cccc(O)c1-c1cc(C2CCNCC2)c2c(n1)NC(=O)OC2 [Example 18-15]
